Source: PubChem BioAssay (NCI)
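Values below derive from 48-hour exposures of cells grown in 96-well plates, with endpoints linearly interpolated between the two concentrations bracketing the appropriate inhibition level. GI50 = concentration required for 50% inhibition of growth. TGI: concentration producing complete growth inhibition.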

How the values were obtained:
Assay in all cases: NCI-60 cell line screen, 48 h
[1] = system: A498 renal
[2] = system: HOP-62 NSCLC
[3] = system: MALME-3M melanoma
[4] = system: MDA-MB-435
[5] = system: OVCAR-4 ovarian
[6] = system: RXF 393 renal
[7] = system: SK-MEL-28 melanoma
[8] = system: SK-OV-3 ovarian
[9] = system: SW-620 colon
[10] = system: IGROV1 ovarian

SMILES	GI50 [1] [µM]	TGI [1] [µM]	GI50 [2] [µM]	TGI [2] [µM]	GI50 [3] [µM]	TGI [3] [µM]	GI50 [4] [µM]	TGI [4] [µM]	GI50 [5] [µM]	TGI [5] [µM]	GI50 [6] [µM]	TGI [6] [µM]	GI50 [7] [µM]	TGI [7] [µM]	GI50 [8] [µM]	TGI [8] [µM]	GI50 [9] [µM]	TGI [9] [µM]	GI50 [10] [µM]	TGI [10] [µM]
c1ccc2[nH]c(-c3ccc(OCCCCCOc4ccc(-c5nc6ccccc6[nH]5)cc4)cc3)nc2c1	6.51	15.8	2.23	5.15	2.12	3.93	1.63	3.94	1.76	3.64	1.48	3.08	0.394	0.903	6.39	17.5	1.02	3.69	–	–
CO/N=C1/NC(=O)/C(=C/c2ccc3ncccc3c2)S1	3.41	11.5	> 22.6	> 25	13.9	> 25	15	> 25	> 25	> 25	9.81	> 25	19.5	> 25	7.78	> 25	> 25	> 25	4.78	15.9
Cc1ccc(NS(=O)(=O)c2cc(C)ccc2C)cc1	2.54	15.4	4.49	> 100	5.36	38.6	0.351	2.57	20.9	> 100	2.9	16.7	10.7	37.3	3.68	21.3	2.58	> 100	7.02	> 100
CCS(=O)(=O)c1ccc(OC)c(Nc2nccc(N(C)c3ccc4c(C)[nH]nc4c3)n2)c1	1.18	6.58	6.72	> 25	8.48	> 25	5.34	13.5	5.66	> 25	2.7	7.81	6.8	> 25	5.03	17.8	7.85	> 25	3.97	16.5
O=C(Nc1ccncc1)C(=O)c1cn(S(=O)(=O)c2ccccc2F)c2ccccc12	5.47	63.3	1.96	34.3	1.65	> 100	0.188	0.695	3.59	> 100	2.44	9.18	3.59	49.1	12	36.6	1.44	> 100	3.83	> 100
C#CC[C@H](c1nc2cc(Cl)ccc2c(=O)n1Nc1ccccc1)N(CCCN)C(=O)c1cccc(Cl)c1F	0.626	3.43	0.842	2.23	1.05	2.45	0.0281	0.0915	1.16	2.54	0.284	1.37	0.765	2.22	0.116	1.59	0.237	1.81	0.979	5.8
CC(=O)Oc1cccc2c1C(=O)C(Br)(Br)CCC2	–	33.4	–	22	–	5.59	–	13.4	–	3.67	–	12.6	–	25.7	–	24.9	–	9.13	–	30.6
O=C(Nc1cc(Cl)ccc1O)c1cccc(NC2=C(Cl)C(=O)N(Cc3ccccc3)C2=O)c1	25.8	> 100	26.7	67.3	30.5	86.4	18.7	38.6	55.5	> 100	17.4	45.1	42.4	> 100	69.1	> 100	21.3	49.9	35.4	> 100
CN(C)CCNC(=O)c1cc([N+](=O)[O-])ccn1	–	> 100	–	> 100	–	28	–	35.8	–	43	–	> 100	–	> 100	–	> 100	–	> 100	–	> 100
O=C(N/N=C/c1ccc(O)cc1O)c1ccc(Nc2ccnc(C(F)(F)F)c2)cc1	> 41.3	97.4	–	–	0.661	> 45.6	> 100	> 100	–	> 100	17.3	64.1	7.5	> 100	9.67	> 80.1	> 100	> 100	21.6	> 100
O=C(c1cc(-c2cc3c(cc2C(=O)N2Cc4ccccc4C[C@H]2CN2CCOCC2)OCO3)n2c1CCCC2)N(c1ccccc1)c1ccc(O)cc1	2.71	15.3	64.4	> 100	15.6	> 100	8.55	98.9	8.35	> 100	2.77	17.5	11.4	> 100	12.7	> 100	17.3	> 100	5.97	> 100
Cn1c2ccc([N+](=O)[O-])cc2c(=O)c2c(O)cc(O)cc21	–	> 100	–	–	–	64.6	–	> 100	–	> 100	–	52	–	> 100	–	–	–	> 100	–	45.3
Cc1cc(S(=O)(=O)NC#N)c(S/C(=N\Nc2ccc([N+](=O)[O-])cc2)c2ccccc2)cc1Cl	–	–	17.2	32.3	16.5	39.6	32.7	> 100	13.9	31.8	23.4	48.9	17.2	37.4	> 100	> 100	17.1	30.8	17.9	39.3
